How the values were obtained:
[1] = molecular target: T1, human TLR7 (Homo sapiens, UniProt Q9NYK1); test: HEK293-Blue-hTLR-7 cells assay (SEAP reporter, R848 stimulation); assay type: cell-based; settings: HEK293-Blue-hTLR7 cells, R848, 20 hrs; read-out: HEK/hTLR7 IC50
T1 construct: host or cells: HEK293 (HEK-Blue hTLR7)
T1 sequence (Q9NYK1 27-1049): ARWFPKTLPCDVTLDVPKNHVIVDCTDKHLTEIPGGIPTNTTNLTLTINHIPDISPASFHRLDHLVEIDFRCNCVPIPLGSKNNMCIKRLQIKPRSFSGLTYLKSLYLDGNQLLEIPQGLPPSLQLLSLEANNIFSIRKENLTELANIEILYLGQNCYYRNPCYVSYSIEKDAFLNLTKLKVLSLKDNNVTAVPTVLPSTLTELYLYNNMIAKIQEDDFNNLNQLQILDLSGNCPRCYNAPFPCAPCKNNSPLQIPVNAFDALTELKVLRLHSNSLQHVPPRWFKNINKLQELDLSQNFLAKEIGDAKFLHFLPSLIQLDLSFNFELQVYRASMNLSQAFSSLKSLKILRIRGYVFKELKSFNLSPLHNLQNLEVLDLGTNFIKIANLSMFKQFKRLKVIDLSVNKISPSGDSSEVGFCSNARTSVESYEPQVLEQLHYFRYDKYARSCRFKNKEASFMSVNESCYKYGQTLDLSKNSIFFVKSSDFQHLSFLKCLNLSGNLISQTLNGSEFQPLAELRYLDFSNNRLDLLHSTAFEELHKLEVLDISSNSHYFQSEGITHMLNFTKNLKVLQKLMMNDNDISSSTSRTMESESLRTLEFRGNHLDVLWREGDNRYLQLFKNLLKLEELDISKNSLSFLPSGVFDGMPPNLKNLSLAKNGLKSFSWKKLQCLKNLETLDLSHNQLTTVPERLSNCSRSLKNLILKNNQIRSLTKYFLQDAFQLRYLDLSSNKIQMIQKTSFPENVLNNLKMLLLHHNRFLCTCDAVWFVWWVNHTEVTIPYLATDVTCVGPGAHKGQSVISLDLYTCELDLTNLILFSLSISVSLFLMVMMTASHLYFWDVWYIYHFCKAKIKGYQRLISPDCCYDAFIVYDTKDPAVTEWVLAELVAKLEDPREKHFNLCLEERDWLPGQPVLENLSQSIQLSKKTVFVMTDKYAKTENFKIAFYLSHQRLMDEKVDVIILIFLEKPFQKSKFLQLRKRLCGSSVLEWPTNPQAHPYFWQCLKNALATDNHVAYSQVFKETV
How it was run: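 Stable HEK293-Blue-hTLR7 cells (NF-κB/AP-1-driven SEAP reporter) were co-incubated with serially diluted compound (1% DMSO final) and R848 for 20 hrs at 37 °C. Supernatant SEAP was developed with QUANTI-Blue substrate for 2 hrs at 37 °C and absorbance read at 620–655 nm; antagonism seen as reduced reporter signal.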

[2] = Human microsome stability assay; assay type: in vitro ADME; settings: 1 μM test compound, 0.5 mg/mL liver microsomal protein, 37° C., pH 7.4
How it was run: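 1 μM compound with 0.5 mg/mL human liver microsomes in 100 mM potassium phosphate pH 7.4, 37° C, started with NADPH-regenerating system after 10 min preincubation. Sampled at 0, 3, 6, 9, 15, 30 min, quenched in acetonitrile; parent remaining by LC-MS/MS, with no-NADPH controls.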

SMILES | IC50 [1] [nM] | Clearance of Human microsome [2] [mL/min/kg]
C[C@H]1CN(c2ccnc3c2cnn3C)Cc2ccc(N3CCN[C@@H](CO)C3)cc21 [Example 50, [(2R)-4-[(4R)-4-methyl-2-(1-methylpyrazolo[3,4-b]pyridin-4-yl)-3,4-dihydro-1H-isoquinolin-6-yl]piperazin-2-yl]methanol] | 10 | 6.2
C[C@H]1CN(c2ccnc3c2cnn3C)Cc2ccc(N3CCN[C@H](CO)C3)cc21 [Example 51, [(2S)-4-[(4R)-4-methyl-2-(1-methylpyrazolo[3,4-b]pyridin-4-yl)-3,4-dihydro-1H-isoquinolin-6-yl]piperazin-2-yl]methanol] | 9 | 7.7
C[C@H]1CN(c2ccnc3c2cnn3C)Cc2ccc(N3CC4(CCNC4)CC3=O)cc21 (stereo partly drawn) [Example 52, 2-[(4R)-4-methyl-2-(1-methylpyrazolo[3,4-b]pyridin-4-yl)-3,4-dihydro-1H-isoquinolin-6-yl]-2,7-diazaspiro[4.4]nonan-3-one] | 9 | 6.2
Cc1cc(N2Cc3ccc(N4CCC(N)CC4)nc3[C@@H](C)C2)c2cnn(C)c2n1 [Example 58, 1-[(8S)-6-(1,6-dimethylpyrazolo[3,4-b]pyridin-4-yl)-8-methyl-7,8-dihydro-5H-1,6-naphthyridin-2-yl]piperidin-4-amine] | 2 | 9.0
Cc1cc(N2Cc3ccc(N4CCC(C)(N)CC4)nc3[C@@H](C)C2)c2cnn(C)c2n1 [Example 59, 4-methyl-1-[(8S)-6-(1,6-dimethylpyrazolo[3,4-b]pyridin-4-yl)-8-methyl-7,8-dihydro-5H-1,6-naphthyridin-2-yl]piperidin-4-amine] | 2 | 9.4
C[C@H]1CN(c2ccnc3c2cnn3C)Cc2ccc(N3CCNCC3)nc21 [Example 62, (8S)-8-methyl-6-(1-methylpyrazolo[3,4-b]pyridin-4-yl)-2-piperazin-1-yl-7,8-dihydro-5H-1,6-naphthyridine] | 5 | 6.8
CO[C@@H]1CN(c2ccc3c(n2)[C@@H](C)CN(c2cc(C)nc4c2cnn4C)C3)C[C@H]1N [Example 63, (3R,4R)-4-methoxy-1-[(8S)-6-(1,6-dimethylpyrazolo[3,4-b]pyridin-4-yl)-8-methyl-7,8-dihydro-5H-1,6-naphthyridin-2-yl]pyrrolidin-3-amine] | 5 | 6.2
Cc1cc(N2Cc3ccc(OC4CCNCC4)nc3[C@@H](C)C2)c2cnn(C)c2n1 [Example 64, (8S)-6-(1,6-dimethylpyrazolo[3,4-b]pyridin-4-yl)-8-methyl-2-(4-piperidyloxy)-7,8-dihydro-5H-1,6-naphthyridine] | 5 | 7.0
Cc1cc(N2Cc3ccc(N4CCNCC4)nc3[C@@H](C)C2)c2cnn(C)c2n1 [Example 66, (8S)-6-(1,6-dimethylpyrazolo[3,4-b]pyridin-4-yl)-8-methyl-2-piperazin-1-yl-7,8-dihydro-5H-1,6-naphthyridine] | 8 | 9.8
Cc1cc(N2Cc3ccc(N4CCN(C)CC4)nc3[C@@H](C)C2)c2cnn(C)c2n1 [Example 67, (8S)-6-(1,6-dimethylpyrazolo[3,4-b]pyridin-4-yl)-8-methyl-2-(4-methylpiperazin-1-yl)-7,8-dihydro-5H-1,6-naphthyridine] | 11 | 10.5
Cc1cc(N2Cc3ccc(N4CC5(CNCCO5)C4)nc3[C@@H](C)C2)c2cnn(C)c2n1 [Example 68, 2-[(8S)-6-(1,6-dimethylpyrazolo[3,4-b]pyridin-4-yl)-8-methyl-7,8-dihydro-5H-1,6-naphthyridin-2-yl]-5-oxa-2,8-diazaspiro[3.5]nonane] | 17 | 9.8
Cc1cc(N2Cc3ccc(N4C[C@@H](F)[C@@H](N)C4)nc3[C@@H](C)C2)c2cnn(C)c2n1 [Example 69, (3S,4R)-4-fluoro-1-[(8S)-6-(1,6-dimethylpyrazolo[3,4-b]pyridin-4-yl)-8-methyl-7,8-dihydro-5H-1,6-naphthyridin-2-yl]pyrrolidin-3-amine] | 30 | 8.1
Cc1cc(N2Cc3ccc(N4CCOC5(CNC5)C4)nc3[C@@H](C)C2)c2cnn(C)c2n1 [Example 70, 8-[(8S)-6-(1,6-dimethylpyrazolo[3,4-b]pyridin-4-yl)-8-methyl-7,8-dihydro-5H-1,6-naphthyridin-2-yl]-5-oxa-2,8-diazaspiro[3.5]nonane] | 36 | 8.1
Cc1cc(N2Cc3ccc(N4CCNCC4)nc3[C@H](C)C2)c2cnn(C)c2n1 [Example 72, (8R)-6-(1,6-dimethylpyrazolo[3,4-b]pyridin-4-yl)-8-methyl-2-piperazin-1-yl-7,8-dihydro-5H-1,6-naphthyridine] | 21 | 7.3
CO[C@H]1CN(c2cc3c(cn2)CN(c2cc(C)nc4c2cnn4C)C[C@@H]3C)CC[C@@H]1N [Example 73, (3S,4S)-3-methoxy-1-[(5R)-7-(1,6-dimethylpyrazolo[3,4-b]pyridin-4-yl)-5-methyl-6,8-dihydro-5H-2,7-naphthyridin-3-yl]piperidin-4-amine] | 4 | 6.3
Cc1cc(N2Cc3cnc(N4CCNCC4)cc3[C@@H](C)C2)c2cnn(C)c2n1 [Example 74, (4R)-2-(1,6-dimethylpyrazolo[3,4-b]pyridin-4-yl)-4-methyl-6-piperazin-1-yl-3,4-dihydro-1H-2,7-naphthyridine] | 6 | 9.2
Cc1cc(N2Cc3cnc(O[C@@H]4C[C@H]5CNCCN5C4)cc3[C@@H](C)C2)c2cnn(C)c2n1 [Example 76, (4R)-2-(1,6-dimethylpyrazolo[3,4-b]pyridin-4-yl)-4-methyl-6-[[(7R,8aS)-1,2,3,4,6,7,8,8a-octahydropyrrolo[1,2-a]pyrazin-7-yl]oxy]-3,4-dihydro-1H-2,7-naphthyridine] | 19 | 6.2
Cc1cc(N2Cc3cnc(OCCN4CCNCC4)cc3[C@@H](C)C2)c2cnn(C)c2n1 [Example 77, (4R)-2-(1,6-dimethylpyrazolo[3,4-b]pyridin-4-yl)-4-methyl-6-(2-piperazin-1-ylethoxy)-3,4-dihydro-1H-2,7-naphthyridine] | 19 | 6.2
CO[C@@H]1CN(c2cc3c(cn2)CN(c2cc(C)nc4c2cnn4C)C[C@@H]3C)C[C@H]1N [Example 78, (3R,4R)-4-methoxy-1-[(5R)-7-(1,6-dimethylpyrazolo[3,4-b]pyridin-4-yl)-5-methyl-6,8-dihydro-5H-2,7-naphthyridin-3-yl]pyrrolidin-3-amine] | 45 | 6.9
Cc1cc(N2Cc3cnc(N4CC5(CNCCO5)C4)cc3[C@@H](C)C2)c2cnn(C)c2n1 [Example 79, 2-[(5R)-7-(1,6-dimethylpyrazolo[3,4-b]pyridin-4-yl)-5-methyl-6,8-dihydro-5H-2,7-naphthyridin-3-yl]-5-oxa-2,8-diazaspiro[3.5]nonane] | 19 | 8.0
Cc1cc(N2Cc3cnc(N4CC[C@@H](N)[C@H](F)C4)cc3[C@@H](C)C2)c2cnn(C)c2n1 [Example 80, (3R,4R)-3-fluoro-1-[(5R)-7-(1,6-dimethylpyrazolo[3,4-b]pyridin-4-yl)-5-methyl-6,8-dihydro-5H-2,7-naphthyridin-3-yl]piperidin-4-amine] | 12 | 6.2
